Among the data in US8703796B2, “3H-imidazo [4, 5-B] pyridine-6-carboxamides as anti-inflammatory agents” (Boehringer Ingelheim International GmbH, priority 2008, dated 2014) are inhibition values, retold here.

SMILES strings stand for the structures. Where a name gives a salt, the structure may show the parent alone.

The assay has as its target T1, recombinant human mPGES-1 (Homo sapiens, UniProt O14684).
T1 construct: made in house; host or cells: Rosetta E. coli (microsomal/membrane fraction)
T1 sequence (O14684 1-152): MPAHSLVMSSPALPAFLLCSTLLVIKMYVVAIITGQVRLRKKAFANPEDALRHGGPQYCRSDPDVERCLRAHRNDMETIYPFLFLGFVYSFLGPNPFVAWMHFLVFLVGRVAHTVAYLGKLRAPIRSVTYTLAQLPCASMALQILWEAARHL
The assay is described as follows: mPGES-1 inhibition, HTRF detection of PGE2. It counts as biochemical. The method, then:
Microsomes from Rosetta E. coli bacteria expressing recombinant human mPGES-1 is dissolved in 0.1 M KPi pH 7.4 buffer containing 2.5 mM GSH. 50 μl of the enzyme is subsequently dispensed in a 384-well plate. 0.5 μl of the inhibitor dissolved in DMSO at is thereafter added to each well and incubated for 25 minutes at room temperature. Subsequently, 2 μl of PGH2 dissolved in an appropriate solvent is added to each well and after one minute the acidified stop solution containing FeCl2 is added. 4 μl of the total volume is transferred to a separate plate and diluted 750-fold in two separate steps before HTRF detection of PGE2.
The HTRf detection is performed by the use of a commercially available kit from CisBio essentially according to the manufacturer's protocol. Briefly, 10 μl of the diluted sample is transferred to a white 384-well plate. 5 μl of d2 and 5 μl Eu3+-Cryptate labeled anti-PGE2 is added to each well containing samples by the use of a Multidrop. The plate is covered with a plastic self-adhesive film, centrifuged at 1200 rpm for 1 minute and subsequently stored at +4° C. over night.
After over night incubation the fluorescence is measured by the use of an appropriate microplate reader. The fluorescence of europium cryptate, and d2 are measured using the following excitation and emission wavelength, europium cryptate: λmax^ex=307 nm, λmax^em=620 nm and d2: λmax^ex=620 nm, λmax^em=665 nm), respectively. The extent of the specific FRET is measured as a ratio of the emission intensity at 665 nm vs. that at 620 nm. A standard curve using synthetic PGE2 is used to quantify the amount of PGE2 in unknown samples.
For orientation: inhibition means the drop in the measured response relative to a control, in per cent. Consider `CCCCCC[C@H](C)NC(=O)c1cnc2c(c1)nc(Nc1c(Cl)cccc1Cl)n2C` [Example 471, (S)-2-(2,6-Dichlorophenylamino)-3-methyl-N-(oct-2-yl)-3H-imidazo[4,5-b]pyridine-6-carboxamide], for which the inhibition at 10 µM came to 99%.

As to `CCCC(CCC)NC(=O)c1cnc2c(c1)nc(Nc1c(Cl)cccc1Cl)n2C` [Example 473, 2-(2,6-Dichlorophenylamino)-N-(hept-4-yl)-3-methyl-3H-imidazo[4,5-b]pyridine-6-carboxamide], the inhibition at 10 µM came to 99%.

`Cn1c(Nc2c(F)cccc2Cl)nc2cc(C(=O)Nc3ccc(Br)cc3)cnc21` [Example 480, N-(4-Bromophenyl)-2-(2-chloro-6-fluorophenylamino)-3-methyl-3H-imidazo[4,5-b]pyridine-6-carboxamide]: the inhibition at 10 µM worked out at 100%.

As for `O=C(NC1CCC2(CC1)CC2)c1cnc2[nH]c(Nc3c(Cl)cccc3Cl)nc2c1` [Example 485, 2-(2,6-Dichlorophenylamino)-N-(spiro[2.5]octan-6-yl)-3H-imidazo[4,5-b]pyridine-6-carboxamide], the inhibition at 10 µM was 98%.

Regarding `Cn1c(Nc2c(F)cccc2Cl)nc2cc(C(=O)N[C@H]3CC[C@H](C)CC3)cnc21` [Example 486, 2-(2-Chloro-6-fluorophenylamino)-3-methyl-N-((1r,4r)-4-methycyclohexyl)-3H-imidazo[4,5-b]pyridine-6-carboxamide], the inhibition at 10 µM is 100%.

As for `CCCCC[C@H](C)NC(=O)c1cnc2c(c1)nc(Nc1c(Cl)cccc1Cl)n2C` [Example 497, (S)-2-(2,6-Dichlorophenylamino)-N-(hept-2-yl)-3-methyl-3H-imidazo[4,5-b]pyridine-6-carboxamide], the inhibition at 10 µM came out at 98%.

Turning to `CC(C)n1c(Nc2c(Cl)cccc2Cl)nc2cc(C(=O)NC3CCC(C)(C)CC3)cnc21` [Example 505, 2-(2,6-Dichlorophenylamino)-N-(4,4-dimethylcyclohexyl)-3-isopropyl-3H-imidazo[4,5-b]pyridine-6-carboxamide], the inhibition at 10 µM came out at 100%.

Consider `Cn1c(Nc2c(Cl)cccc2Cl)nc2cc(C(=O)NC3CCC4(CC4)C3)cnc21` (stereo not drawn) [Example 506, 2-(2,6-Dichlorophenylamino)-3-methyl-N-(spiro[2.4]heptan-5-yl)-3H-imidazo[4,5-b]pyridine-6-carboxamide], for which the inhibition at 10 µM was found to be 100%.

Consider `CCCC[C@@H](C)NC(=O)c1cnc2c(c1)nc(Nc1c(Cl)cccc1Cl)n2C` [Example 508, (R)-2-(2,6-Dichlorophenylamino)-N-(hexan-2-yl)-3-methyl-3H-imidazo[4,5-b]pyridine-6-carboxamide], for which the inhibition at 10 µM was found to be 94%.

Regarding `CC(C)n1c(Nc2c(F)cccc2Cl)nc2cc(C(=O)NC3CCC(C)(C)CC3)cnc21` [Example 511, 2-(2-Chloro-6-fluorophenylamino)-N-(4,4-dimethylcyclohexyl)-3-isopropyl-3H-imidazo[4,5-b]pyridine-6-carboxamide], the inhibition at 10 µM came out at 96%.

Regarding `CCCC[C@@H](C)NC(=O)c1cnc2[nH]c(Nc3c(Cl)cccc3Cl)nc2c1` [Example 517, (R)-2-(2,6-Dichlorophenylamino)-N-(hex-2-yl)-3H-imidazo[4,5-b]pyridine-6-carboxamide], the inhibition at 10 µM is 100%.

Turning to `CC#CCn1c(Nc2c(Cl)cccc2Cl)nc2cc(C(=O)NC3CCCCC3)cnc21` [Example 523, 3-(But-2-ynyl)-N-cyclohexyl-2-(2,6-dichlorophenylamino)-3H-imidazo[4,5-b]pyridine-6-carboxamide], the inhibition at 10 µM was found to be 96%.

As for `CCCC[C@H](C)NC(=O)c1cnc2c(c1)nc(Nc1c(Cl)cccc1Cl)n2C` [Example 527, (S)-2-(2,6-Dichlorophenylamino)-N-(hex-2-yl)-3-methyl-3H-imidazo[4,5-b]pyridine-6-carboxamide], the inhibition at 10 µM was 96%.

Regarding `O=C(N[C@H]1CC[C@H](C(F)F)CC1)c1cnc2[nH]c(Nc3c(Cl)cccc3Cl)nc2c1` [Example 535, 2-(2,6-Dichlorophenylamino)-N-((1r,4r)-4-(difluoromethyl)cyclohexyl)-3H-imidazo[4,5-b]pyridine-6-carboxamide], the inhibition at 10 µM came to 100%.

On to `CC(C)n1c(Nc2ccccc2Cl)nc2cc(C(=O)NC3CCC(C)(C)CC3)cnc21` [Example 541, 2-(2-Chlorophenylamino)-N-(4,4-dimethylcyclohexyl)-3-isopropyl-3H-imidazo[4,5-b]pyridine-6-carboxamide hydrochloride], for which the inhibition at 10 µM turned out to be 74%.

Turning to `Cn1c(Nc2c(Cl)cccc2Cl)nc2cc(C(=O)N[C@H]3CC[C@H](C(F)F)CC3)cnc21` [Example 560], the inhibition at 10 µM turned out to be 93%.

In the case of `Cn1c(Nc2c(F)cccc2C(F)(F)F)nc2cc(C(=O)Nc3ccc(Br)cc3)c(OCC(F)F)nc21` [Example 771, N-(4-Bromophenyl)-2-(2-fluoro-6-trifluoromethylphenylamino)-5-(2,2-difluoro-ethoxy)-3-methyl-3H-imidazo[4,5-b]pyridine-6-carboxamide], the inhibition at 1 µM was 100%.

Turning to `Cn1c(Nc2ccccc2C(F)(F)F)nc2cc(C(=O)Nc3ccc(Br)cc3)c(OCC(F)F)nc21` [Example 772, N-(4-Bromo-phenyl)-2-(2-trifluoromethyl-phenylamino)-5-(2,2-difluoroethoxy)-3-methyl-3H-imidazo[4,5-b]pyridine-6-carboxamide], the inhibition at 1 µM was 100%.

For `Cn1c(Nc2c(F)cccc2Cl)nc2cc(C(=O)Nc3ccc(Br)cc3)c(OCC(F)F)nc21` [Example 773, N-(4-Bromo-phenyl)-2-(2-fluoro-6-chloro-phenylamino)-5-(2,2-difluoroethoxy)-3-methyl-3H-imidazo[4,5-b]pyridine-6-carboxamide], the inhibition at 1 µM amounted to 100%.

On to `O=C(Nc1ccc(Br)cc1)c1cc2nc(Nc3c(F)cccc3C(F)(F)F)[nH]c2nc1OCC(F)F` [Example 774, N-(4-Bromo-phenyl)-2-(2-fluoro-6-trifluoromethyl-phenylamino)-5-(2,2-difluoroethoxy)-3H-imidazo[4,5-b]pyridine-6-carboxamide], for which the inhibition at 1 µM stood at 100%.

For `O=C(Nc1ccc(Br)cc1)c1cc2nc(Nc3ccccc3C(F)(F)F)[nH]c2nc1OCC(F)F` [Example 775, N-(4-Bromo-phenyl)-2-(2-trifluoromethyl-phenylamino)-5-(2,2-difluoroethoxy)-3H-imidazo[4,5-b]pyridine-6-carboxamide], the inhibition at 1 µM came out at 95%.

For the molecule `O=C(Nc1ccc(Br)cc1)c1cc2nc(Nc3c(F)cccc3Cl)[nH]c2nc1OCC(F)F` [Example 776, N-(4-Bromo-phenyl)-2-(2-fluoro-6-chloro-phenylamino)-5-(2,2-difluoroethoxy)-3H-imidazo[4,5-b]pyridine-6-carboxamide], the inhibition at 1 µM was found to be 100%.

As to `Cn1c(Nc2c(Cl)cccc2C(F)(F)F)nc2cc(C(=O)N[C@H]3CC[C@H](C(F)(F)F)CC3)c(OCC(F)F)nc21` [Example 777, 2-(2-Chloro-6-trifluoromethyl-phenylamino)-5-(2,2-difluoro-ethoxy)-N-(trans-4-trifluoromethyl-cyclohexyl)-3-methyl-3H-imidazo[4,5-b]pyridine-6-carboxamide], the inhibition at 1 µM amounted to 98%.

For `O=C(N[C@H]1CC[C@H](C(F)(F)F)CC1)c1cc2nc(Nc3c(Cl)cccc3C(F)(F)F)[nH]c2nc1OCC(F)F` [Example 778, 2-(2-Chloro-6-trifluoromethyl-phenylamino)-5-(2,2-difluoro-ethoxy)-N-(trans-4-trifluoromethyl-cyclohexyl)-3H-imidazo[4,5-b]pyridine-6-carboxamide], the inhibition at 1 µM was determined as 98%.

On to `Cn1c(Nc2c(Cl)cnc(Cl)c2Cl)nc2cc(C(=O)N[C@H]3CC[C@H](C(F)(F)F)CC3)c(OCC(F)F)nc21` [Example 779, 2-(2,3,5-Trichloro-pyridin-4-yl-amino)-5-(2,2-difluoro-ethoxy)-N-(trans-4-trifluoromethyl-cyclohexyl)-3-methyl-3H-imidazo[4,5-b]pyridine-6-carboxamide], for which the inhibition at 1 µM was determined as 96%.

For the molecule `Cn1c(Nc2c(F)cccc2C(F)(F)F)nc2cc(C(=O)N[C@H]3CC[C@H](C(F)(F)F)CC3)c(OCC(F)F)nc21` [Example 780, 2-(2-Fluoro-6-trifluoromethyl-phenylamino)-5-(2,2-difluoro-ethoxy)-N-(trans-4-trifluoromethyl-cyclohexyl)-3-methyl-3H-imidazo[4,5-b]pyridine-6-carboxamide], the inhibition at 1 µM worked out at 100%.

`O=C(N[C@H]1CC[C@H](C(F)(F)F)CC1)c1cc2nc(Nc3c(F)cccc3C(F)(F)F)[nH]c2nc1OCC(F)F` [Example 781, 2-(2-Fluoro-6-trifluoromethyl-phenylamino)-5-(2,2-difluoro-ethoxy)-N-(trans-4-trifluoromethyl-cyclohexyl)-3H-imidazo[4,5-b]pyridine-6-carboxamide]: the inhibition at 1 µM was 99%.
